# Source: patent US20190142810A1, “MITOCHONDRIAL INHIBITORS FOR THE TREATMENT OF PROLIFERATION DISORDERS” (Basilea Pharmaceutica International AG, priority 2016, published 2019)
# Tests used:
# HeLa galactose cells = assay: Cell growth and proliferation assay of HeLa galactose cells (crystal violet); type: cell-based; settings: 72 hours incubation, crystal violet staining, absorbance at 590 nm
# Description: The cervical tumor cell line HeLa (ATCC, CCL-2) was cultivated in DMEM medium (Invitrogen cat. no. 11971, 4.5 g/L high glucose) containing 10% fetal calf serum (Sigma cat. no. F9665) and 1% Penicillin/Streptomycin (Sigma cat. no. P0781) at 37° C. in 5% CO2. HeLa galactose cells (i.e. HeLa cells that grow in high concentrations of galactose) were generated from HeLa glucose cells (i.e. HeLa cells that grow in high concentrations of glucose) by gradually changing the amount of glucose in the media to zero glucose in the presence of galactose as a sugar source (50% galactose/50% glucose media for one week, then 75% galactose/25% glucose media for one week, to 100% galactose media in the third week). Galactose media (Invitrogen cat. no. 11966) was supplemented with 10 mM galactose (Sigma cat. no. G5388).
# Cell Growth and Proliferation Assay of HeLa Galactose and Glucose Cells
# HeLa galactose cells and HeLa glucose cells were seeded in 96 well plates (TPP, cat. no 92696) at 2000 and 1500 cells/well, respectively, in 100 μL of complete medium. After overnight incubation the cells were incubated for 72 hours in complete medium containing 0.001% DMSO or compounds (final concentration of DMSO 0.001%). After the medium was removed, cells were fixed and stained by adding 50 μL crystal violet staining (0.2% crystal violet (Sigma-Aldrich cat. no. C0775) in 50% methanol) per well. The plates were incubated for 1 hour at room temperature. Subsequently the stain was decanted and plates were washed 4 times with de-mineralized water. Plates were air-dried for 2 hours. The stain was dissolved by adding 100 μL buffer (0.1 M Tris pH 7.5, 0.2% SDS, 20% ethanol) per well and shaking the plates. Absorbance at 590 nm was measured using a SpectraMax® 250 plate reader (Molecular Devices). Antiproliferative/growth inhibition IC50s were calculated from concentration-response curves using GraphPad Prism software.
# [1] = system: Oxygen consumption (mitochondrial function); assay: Oxygen consumption assay (MitoXpress probe); type: cell-based; settings: MitoXpress probe signal, kinetic analysis at 37° C. for 5 hours, compared to untreated cells
# Excerpt: Oxygen consumption is one of the most informative and direct measures of mitochondrial function and can be measured, for example, by using the MitoXpress® assay (Luxcel MX-2001, Luxcel Biosciences). The MitoXpress® probe is one of a family of phosphorescent oxygen sensitive probes. The assay exploits the ability of oxygen to quench the excited state of the MitoXpress® probe. As the test material respires (i.e. the cells), oxygen is depleted in the surrounding solution/environment, which increases the probe phosphorescence signal. Changes in oxygen consumption reflecting changes in mitochondrial activity are seen as changes in the MitoXpress® probe signal over time.
# Cells were seeded in 96 well black plates with transparent bottoms (Greiner Bio-One cat. no. 655090) at a density of 50′000 cells/well in a final volume of 100 μL. After 24 hours the incubation media was removed and 150 μL of fresh media containing inhibitors at different concentrations was added to each well. Then, 10 μL of MitoXpress® and 150 μL mineral oil were added per well. Reading from the top of the plate, kinetic analysis was performed at 37° C. for 5 hours using a Synergy 4 plate reader (BioTek) and Time-resolved Fluoresence (TRF) wavelengths of 380/11 nm excitation and 650/20 nm emission or 665/40 emission (30 microsecond delay time, 100 microsecond integration time, gain or sensitivity settings set at either medium or high). IC50s were calculated as the concentration that inhibits 50% of the phosphorescent oxygen sensitive probe signal (MitoXpress®) as compared to untreated cells.
Compound,"IC50 (HeLa galactose cells; Homo sapiens, HeLa, 72 h)",IC50 (HeLa galactose cells),IC50 [1],IC50 ([1]; 5 h)
"Cc1nsc(NC(=O)N2CCC(Cc3ccc(F)cc3)CC2)n1 [Example 1, 1-Piperidinecarboxamide, 4-[(4-fluorophenyl)methyl]-N-(3-methyl-1,2,4-thiadiazol-5-yl)-]",161 nM,,,193 nM
Cc1nsc(NC(=O)N2CCC(Cc3ccc(Cl)cc3)CC2)n1 [Example 2],41 nM,,,< 100 nM
COc1ccc(CC2CCN(C(=O)Nc3nc(C)ns3)CC2)cc1 [Example 3],80 nM,,,< 100 nM
"Cc1nsc(NC(=O)N2CCC(Cc3ccc(N)cc3)CC2)n1 [Example 4, 4-[(4-aminophenyl)methyl]-N-(3-methyl-1,2,4-thiadiazol-5-yl)piperidine-1-carboxamide]",460 nM,,,400 nM
Cc1ccc(CC2CCN(C(=O)Nc3nc(C)ns3)CC2)cc1 [Example 5],36 nM,,,100 nM
COCc1ccc(CC2CCN(C(=O)Nc3nc(C)ns3)CC2)cc1 [Example 6],31 nM,,,200 nM
"Cc1ccc(SC2CCN(C(=O)Nc3nc(C)ns3)CC2)cc1 [Example 7, N-(3-methyl-1,2,4-thiadiazol-5-yl)-4-(p-tolylsulfanyl)piperidine-1-carboxamide]",142 nM,,,500 nM
Cc1nsc(NC(=O)N2CCC(Cc3ccc(Cl)cc3Cl)CC2)n1 [Example 8],32 nM,,,200 nM
Cc1nsc(NC(=O)N2CCC(Cc3ccc(Cl)cc3F)CC2)n1 [Example 9],36 nM,,,< 100 nM
Cc1nsc(NC(=O)N2CCC(Cc3ccc(C(F)(F)F)cc3)CC2)n1 [Example 10],36 nM,,,200 nM
Cc1nsc(NC(=O)N2CCC(Cc3ccc(C(C)(C)C)cc3)CC2)n1 [Example 11],193 nM,,,1300 nM
Cc1ccc(CC2CCN(C(=O)Nc3nc(C)ns3)CC2)c(C)c1 [Example 12],19 nM,,,500 nM
"COc1ccc(CC2CCN(C(=O)Nc3nc(C)ns3)CC2)c(C)c1 [Example 13, 4-[(4-methoxy-2-methyl-phenyl)methyl]-N-(3-methyl-1,2,4-thiadiazol-5-yl)piperidine-1-carboxamide]",307 nM,,,345 nM
Cc1nsc(NC(=O)N2CCC(Cc3ccc(Cl)cc3C)CC2)n1 [Example 14],146 nM,,,200 nM
Cc1ccc(CC2CCN(C(=O)Nc3nc(C)ns3)CC2)nc1 [Example 15],267 nM,,,412 nM
Cc1nsc(NC(=O)N2CCC(Cc3ccc(C(C)C)cc3)CC2)n1 [Example 16],260 nM,,,326 nM
CCc1ccc(CC2CCN(C(=O)Nc3nc(C)ns3)CC2)cc1 [Example 17],162 nM,,,243 nM
Cc1ccc(OC2CCN(C(=O)Nc3nc(C)ns3)CC2)cc1 [Example 18],637 nM,,,515 nM
"Cc1nsc(NC(=O)N2CCC(Oc3ccc(Cl)cc3)CC2)n1 [Example 19, 4-(4-chlorophenoxy)-N-(3-methyl-1,2,4-thiadiazol-5-yl)piperidine-1-carboxamide]",266 nM,,,488 nM
Cc1nsc(NC(=O)N2CCC(Oc3ccc(Cl)cc3Cl)CC2)n1 [Example 20],122 nM,,,369 nM
Cc1nsc(NC(=O)N2CCC(=Cc3ccc(Cl)cc3Cl)CC2)n1 [Example 21],207 nM,,,208 nM
Cc1nsc(NC(=O)N2CCC(Cc3ccc(Cl)cc3N)CC2)n1 [Example 24],138 nM,,,307 nM
"Cc1nsc(NC(=O)N2CCC(Cc3c(F)cc(Cl)cc3F)CC2)n1 [Example 25, 4-[(4-chloro-2,6-difluoro-phenyl)methyl]-N-(3-methyl-1,2,4-thiadiazol-5-yl)piperidine-1-carboxamide]",18 nM,,,55 nM
"Cc1nsc(NC(=O)N2CCC(=Cc3c(F)cc(Cl)cc3F)CC2)n1 [Example 26, 4-[(4-chloro-2,6-difluoro-phenyl)methylene]-N-(3-methyl-1,2,4-thiadiazol-5-yl)piperidine-1-carboxamide]",15 nM,,,23 nM
"Cc1ccc(CC2CCN(C(=O)Nc3nc(C)ns3)CC2)c(F)c1 [Example 27, 4-[(2-fluoro-4-methyl-phenyl)methyl]-N-(3-methyl-1,2,4-thiadiazol-5-yl)piperidine-1-carboxamide]",59 nM,,,83 nM
"Cc1nsc(NC(=O)N2CCC(Cc3ccc(C)c(C)c3)CC2)n1 [Example 28, 4-[(3,4-dimethylphenyl)methyl]-N-(3-methyl-1,2,4-thiadiazol-5-yl)piperidine-1-carboxamide]",249 nM,,,334 nM

# Second part, led by results:
"IC50 (HeLa galactose cells; Homo sapiens, HeLa, 72 h)",IC50 (HeLa galactose cells),Compound,IC50 [1],IC50 ([1]; 5 h)
47 nM,,"Cc1nsc(NC(=O)N2CCC(Cc3ccc(Cl)cc3F)C(C)C2)n1 (single isomer, unassigned) [Example 84a, 4-[(4-chloro-2-fluoro-phenyl)methyl]-3-methyl-N-(3-methyl-1,2,4-thiadiazol-5-yl)piperidine-1-carboxamide]",57 nM,
,75 nM,"Cc1nsc(NC(=O)N2CCC(Cc3ccc(Cl)cc3F)C(C)C2)n1 (single isomer, unassigned) [Example 84b, 4-[(4-chloro-2-fluoro-phenyl)methyl]-3-methyl-N-(3-methyl-1,2,4-thiadiazol-5-yl)piperidine-1-carboxamide]",121 nM,
256 nM,,Cc1nsc(NC(=O)N2CCC(Cc3ccc(C)c(F)c3)CC2)n1 [Example 29],,205 nM
59 nM,,COc1ccc(CC2CCN(C(=O)Nc3nc(C)ns3)CC2)c(F)c1 [Example 30],,178 nM
43 nM,,Cc1nsc(NC(=O)N2CCC(Cc3ccc(C#N)cc3F)CC2)n1 [Example 32],,116 nM
70 nM,,Cc1nsc(NC(=O)N2CCC(Cc3ccc(C(F)(F)F)cc3F)CC2)n1 [Example 33],,102 nM
240 nM,,"Cc1nsc(NC(=O)N2CCC(Cc3ccc(-c4noc(C)n4)cc3F)CC2)n1 [Example 35, 4-[[2-fluoro-4-(5-methyl-1,2,4-oxadiazol-3-yl)phenyl]methyl]-N-(3-methyl-1,2,4-thiadiazol-5-yl)piperidine-1-carboxamide]",,473 nM
61 nM,,Cc1nsc(NC(=O)N2CCC(=Cc3ccc(C(F)(F)F)cc3F)CC2)n1 [Example 38],,131 nM
38 nM,,"Cc1nsc(NC(=O)N2CCC(=Cc3ccc(Cl)cc3F)CC2)n1 [Example 39, 4-[(4-chloro-2-fluoro-phenyl)methylene]-N-(3-methyl-1,2,4-thiadiazol-5-yl)piperidine-1-carboxamide]",,69 nM
96 nM,,"O=C(Nc1ccnc(CO)c1)N1CCC(=Cc2ccc(Cl)cc2F)CC1 [Example 177, 4-[(4-chloro-2-fluoro-phenyl)methylene]-N-[2-(hydroxymethyl)-4-pyridyl]piperidine-1-carboxamide]",,
155 nM,,"N#CCc1cc(NC(=O)N2CCC(=Cc3ccc(Cl)cc3F)CC2)ccn1 [Example 178, 4-[(4-chloro-2-fluoro-phenyl)methylene]-N-[2-(cyanomethyl)-4-pyridyl]piperidine-1-carboxamide]",,
330 nM,,"NCc1cc(NC(=O)N2CCC(=Cc3c(F)cc(Cl)cc3F)CC2)ccn1 [Example 180, N-[2-(aminomethyl)-4-pyridyl]-4-[(4-chloro-2,6-difluoro-phenyl)methylene]piperidine-1-carboxamide]",,
